Our source for the Ki values is patent US20230295200A1 (REGENTS OF THE UNIVERSITY OF MICHIGAN, priority 2022, published 2023).

Each structure is given as a SMILES string. Where only a bound is given, the exact number is not on record here.

For assay [1], the target named is T1, STAT6 protein (Homo sapiens, UniProt P42226).
T1 sequence (P42226 1-847): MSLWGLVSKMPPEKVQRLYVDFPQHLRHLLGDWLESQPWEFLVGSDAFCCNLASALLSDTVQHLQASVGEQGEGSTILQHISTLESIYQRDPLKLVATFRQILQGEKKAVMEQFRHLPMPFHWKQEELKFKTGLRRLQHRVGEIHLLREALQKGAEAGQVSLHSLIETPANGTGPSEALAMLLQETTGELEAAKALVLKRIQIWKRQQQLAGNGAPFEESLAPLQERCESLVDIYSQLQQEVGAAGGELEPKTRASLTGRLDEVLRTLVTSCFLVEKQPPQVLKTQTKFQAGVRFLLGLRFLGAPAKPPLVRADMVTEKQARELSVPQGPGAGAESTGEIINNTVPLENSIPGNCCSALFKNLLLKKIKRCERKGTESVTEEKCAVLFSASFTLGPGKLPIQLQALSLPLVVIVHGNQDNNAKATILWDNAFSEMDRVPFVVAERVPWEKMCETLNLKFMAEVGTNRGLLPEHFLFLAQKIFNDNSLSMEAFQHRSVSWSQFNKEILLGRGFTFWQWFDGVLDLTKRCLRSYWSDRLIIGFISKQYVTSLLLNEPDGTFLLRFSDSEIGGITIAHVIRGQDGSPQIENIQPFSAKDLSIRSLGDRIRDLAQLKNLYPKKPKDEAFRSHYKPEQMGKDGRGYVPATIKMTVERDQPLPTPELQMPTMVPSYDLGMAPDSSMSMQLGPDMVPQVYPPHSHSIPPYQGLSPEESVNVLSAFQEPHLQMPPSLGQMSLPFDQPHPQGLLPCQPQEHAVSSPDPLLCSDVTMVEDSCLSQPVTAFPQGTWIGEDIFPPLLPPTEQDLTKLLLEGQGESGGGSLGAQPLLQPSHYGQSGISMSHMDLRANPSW
As to the kind of experiment: Fluorescence polarization (FP) binding assay, STAT6. The note with it: FP competition, 5 nM fluorescein-labeled tracer, 200 nM protein, PBS pH7.4; read-out: Binding STAT6. The method, boiled down:
(§1)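 Polarization of a 5 nM fluorescein tracer bound by 200 nM STAT protein, measured after 1 h room-temperature equilibration in buffered PBS pH 7.4 with DTT, gave inhibition constants via nonlinear curve fitting.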

Assay [2] has as its target T2, STAT5A (Homo sapiens, UniProt P42229).
T2 sequence (P42229 1-794): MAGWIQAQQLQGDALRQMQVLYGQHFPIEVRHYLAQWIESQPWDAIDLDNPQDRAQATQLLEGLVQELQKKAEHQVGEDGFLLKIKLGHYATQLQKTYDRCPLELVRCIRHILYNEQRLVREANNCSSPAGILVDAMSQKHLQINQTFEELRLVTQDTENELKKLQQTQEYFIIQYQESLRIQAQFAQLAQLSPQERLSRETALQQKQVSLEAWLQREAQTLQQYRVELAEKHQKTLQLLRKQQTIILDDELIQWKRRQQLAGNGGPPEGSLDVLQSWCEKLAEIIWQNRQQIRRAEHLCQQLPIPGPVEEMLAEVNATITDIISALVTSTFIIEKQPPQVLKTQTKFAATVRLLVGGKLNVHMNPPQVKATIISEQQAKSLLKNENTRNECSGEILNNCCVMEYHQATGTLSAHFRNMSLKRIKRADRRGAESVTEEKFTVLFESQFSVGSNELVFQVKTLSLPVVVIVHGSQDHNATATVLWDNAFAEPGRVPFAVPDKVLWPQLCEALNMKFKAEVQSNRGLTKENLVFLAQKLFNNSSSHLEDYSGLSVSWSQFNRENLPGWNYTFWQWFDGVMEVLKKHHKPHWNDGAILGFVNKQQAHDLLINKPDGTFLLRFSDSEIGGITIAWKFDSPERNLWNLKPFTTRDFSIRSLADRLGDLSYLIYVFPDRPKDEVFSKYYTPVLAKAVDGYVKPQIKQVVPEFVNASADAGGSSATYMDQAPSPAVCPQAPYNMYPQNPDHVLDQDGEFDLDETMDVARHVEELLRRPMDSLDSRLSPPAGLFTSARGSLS
As to the kind of experiment: Fluorescence polarization (FP) binding assay, STAT5A. To be noted: FP competition, 5 nM fluorescein-labeled tracer, 200 nM protein, PBS pH7.4. The method, boiled down: as §1
In general terms: In fluorescence polarisation assays a small probe gives low polarisation when free and higher when bound to something large.

For `NCCCC[C@H](NC(=O)c1cc2cc(C(F)(F)P(=O)(O)O)ccc2[nH]1)C(=O)N1CCC[C@H]1C(=O)N1CCc2ccccc2C1` [Compound 9, ((2-(((S)-6-amino-1-oxo-1-((S)-2-(1,2,3,4-tetrahydroisoquinoline-2-carbonyl)pyrrolidin-1-yl)hexan-2-yl)carbamoyl)-1H-indol-5-yl)difluoromethyl)phosphonic acid], the Ki is 1 to 10 µM in assay [1] and greater than 10 µM in assay [2].
On the same counts, the results for `CC(C)(C)[C@H](NC(=O)c1cc2cc(C(F)(F)P(=O)(O)O)ccc2[nH]1)C(=O)N1CCC[C@H]1C(=O)N[C@@H]1CCCc2ccccc21` [Compound 10, ((2-(((S)-3,3-dimethyl-1-oxo-1-((S)-2-(((R)-1,2,3,4-tetrahydronaphthalen-1-yl)carbamoyl)pyrrolidin-1-yl)butan-2-yl)carbamoyl)-1H-indol-5-yl)difluoromethyl)phosphonic acid] are 1 to 10 µM and greater than 10 µM.
In the same order, the values of `CC(C)(C)[C@H](NC(=O)c1cc2cc(C(F)(F)P(=O)(O)O)ccc2[nH]1)C(=O)N1CCC[C@H]1C(=O)N[C@H]1CCCc2ccccc21` [Compound 11, ((2-(((S)-3,3-dimethyl-1-oxo-1-((S)-2-(((S)-1,2,3,4-tetrahydronaphthalen-1-yl)carbamoyl)pyrrolidin-1-yl)butan-2-yl)carbamoyl)-1H-indol-5-yl)difluoromethyl)phosphonic acid] are 1 to 10 µM and greater than 10 µM.
On the same counts, the results for `CC(C)(C)[C@H](NC(=O)c1cc2cc(C(F)(F)P(=O)(O)O)ccc2[nH]1)C(=O)N1CCC[C@H]1C(=O)NC1CCc2ccccc21` (stereo partly drawn) [Compound 12, ((2-(((2S)-1-((2S)-2-((2,3-dihydro-1H-inden-1-yl)carbamoyl)pyrrolidin-1-yl)-3,3-dimethyl-1-oxobutan-2-yl)carbamoyl)-1H-indol-5-yl)difluoromethyl)phosphonic acid] are 1 to 10 µM and greater than 10 µM.
As for `CC(C)(C)[C@H](NC(=O)c1cc2cc(C(F)(F)P(=O)(O)O)ccc2[nH]1)C(=O)N1CCC[C@H]1C(=O)N1CCN(c2ccccc2)CC1` [Compound 13, ((2-(((S)-3,3-dimethyl-1-oxo-1-((S)-2-(4-phenylpiperazine-1-carbonyl)pyrrolidin-1-yl)butan-2-yl)carbamoyl)-1H-indol-5-yl)difluoromethyl)phosphonic acid], the Ki in assay [1] is 1 to 10 µM; in assay [2], greater than 10 µM.
As for `CC(C)(C)[C@H](NC(=O)c1cc2cc(C(F)(F)P(=O)(O)O)ccc2[nH]1)C(=O)N1CCC[C@H]1C(=O)NC(c1ccccc1)c1ccccc1` [Compound 14, ((2-(((S)-1-((S)-2-(benzhydrylcarbamoyl)pyrrolidin-1-yl)-3,3-dimethyl-1-oxobutan-2-yl)carbamoyl)-1H-indol-5-yl)difluoromethyl)phosphonic acid], the Ki in assay [1] is 1 to 10 µM; in assay [2], greater than 10 µM.
In the same order, the values of `CC(C)(C)[C@H](NC(=O)c1cc2cc(C(F)(F)P(=O)(O)O)ccc2[nH]1)C(=O)N1CCC[C@H]1C(=O)Nc1ccc2ccccc2c1` [Compound 15, ((2-(((S)-3,3-dimethyl-1-((S)-2-(naphthalen-2-ylcarbamoyl)pyrrolidin-1-yl)-1-oxobutan-2-yl)carbamoyl)-1H-indol-5-yl)difluoromethyl)phosphonic acid] are 1 to 10 µM and 1 to 10 µM.
`CC(C)(C)[C@H](NC(=O)c1cc2cc(C(F)(F)P(=O)(O)O)ccc2[nH]1)C(=O)N1CCC[C@H]1C(=O)N[C@@H]1C[C@H]1c1ccccc1` [Compound 16, ((2-(((S)-3,3-dimethyl-1-oxo-1-((S)-2-(((1R,2S)-2-phenylcyclopropyl)carbamoyl)pyrrolidin-1-yl)butan-2-yl)carbamoyl)-1H-indol-5-yl)difluoromethyl)phosphonic acid]: the results for the Ki in assay [1] and in assay [2] were 1 to 10 µM and greater than 10 µM, respectively.
On the same counts, the results for `CC(C)(C)[C@H](NC(=O)c1cc2cc(C(F)(F)P(=O)(O)O)ccc2[nH]1)C(=O)N1CCC[C@H]1c1nc(Cc2ccccc2)cs1` [Compound 17, ((2-(((S)-1-((S)-2-(4-benzylthiazol-2-yl)pyrrolidin-1-yl)-3,3-dimethyl-1-oxobutan-2-yl)carbamoyl)-1H-indol-5-yl)difluoromethyl)phosphonic acid] are 1 to 10 µM and 1 to 10 µM.
On the same counts, the results for `CC(C)(C)[C@H](NC(=O)/C=C/c1ccc(C(F)(F)P(=O)(O)O)cc1)C(=O)N1CCC[C@H]1c1nc(Cc2ccccc2)cs1` [Compound 18, ((4-((E)-3-(((S)-1-((S)-2-(4-benzylthiazol-2-yl)pyrrolidin-1-yl)-3,3-dimethyl-1-oxobutan-2-yl)amino)-3-oxoprop-1-en-1-yl)phenyl)difluoromethyl)phosphonic acid] are greater than 10 µM and greater than 10 µM.
On the same counts, the results for `CC(C)(C)[C@H](NC(=O)c1cc2cc(C(F)(F)P(=O)(O)O)ccc2[nH]1)C(=O)N1CCC[C@H]1c1nc(-c2ccccc2)cs1` [Compound 19, ((2-(((S)-3,3-dimethyl-1-oxo-1-((S)-2-(4-phenylthiazol-2-yl)pyrrolidin-1-yl)butan-2-yl)carbamoyl)-1H-indol-5-yl)difluoromethyl)phosphonic acid] are 1 to 10 µM and greater than 10 µM.
With `CC(C)(C)[C@H](NC(=O)/C=C/c1ccc(C(F)(F)P(=O)(O)O)cc1)C(=O)N1CCC[C@H]1c1nc(-c2ccccc2)cs1` [Compound 20, ((4-((E)-3-(((S)-3,3-dimethyl-1-oxo-1-((S)-2-(4-phenylthiazol-2-yl)pyrrolidin-1-yl)butan-2-yl)amino)-3-oxoprop-1-en-1-yl)phenyl)difluoromethyl)phosphonic acid], the Ki in assay [1] and in assay [2] was greater than 10 µM in each case.
For `CC(C)(C)[C@H](NC(=O)c1cc2cc(C(F)(F)P(=O)(O)O)ccc2[nH]1)C(=O)N1CCC[C@H]1c1ncc(-c2ccccc2)s1` [Compound 21, ((2-(((S)-3,3-dimethyl-1-oxo-1-((S)-2-(5-phenylthiazol-2-yl)pyrrolidin-1-yl)butan-2-yl)carbamoyl)-1H-indol-5-yl)difluoromethyl)phosphonic acid], the Ki in assay [1] was 1 to 10 µM; in assay [2] it was greater than 10 µM.
In the same order, the values of `CC(C)(C)[C@H](NC(=O)/C=C/c1ccc(C(F)(F)P(=O)(O)O)cc1)C(=O)N1CCC[C@H]1c1ncc(-c2ccccc2)s1` [Compound 22, ((4-((E)-3-(((S)-3,3-dimethyl-1-oxo-1-((S)-2-(5-phenylthiazol-2-yl)pyrrolidin-1-yl)butan-2-yl)amino)-3-oxoprop-1-en-1-yl)phenyl)difluoromethyl)phosphonic acid] are greater than 10 µM and greater than 10 µM.
In the same order, the values of `O=C(N[C@@H](CC1CCCCC1)C(=O)N1CCC[C@H]1C(=O)N1CCc2ccccc2C1)c1cc2cc(C(F)(F)P(=O)(O)O)ccc2[nH]1` [Compound 23, ((2-(((S)-3-cyclohexyl-1-oxo-1-((S)-2-(1,2,3,4-tetrahydroisoquinoline-2-carbonyl)pyrrolidin-1-yl)propan-2-yl)carbamoyl)-1H-indol-5-yl)difluoromethyl)phosphonic acid] are 1 to 10 µM and 1 to 10 µM.
